Experimental data published in publication PMC10339703 (Clinical and Translational Science, 2023).

Test system: healthy subjects
Assay: Safety and tolerability
Assay type: in vivo, human
[1] = MAD 25 mg tablet b.i.d. 14 days
[2] = MAD 50 mg tablet b.i.d. 14 days
[3] = MAD 100 mg tablet b.i.d. 14 days
[4] = MAD 200 mg tablet b.i.d. 14 days

O[C@H]1CCCN[C@@H]1CCCn1cnc2c(Cl)c(Cl)ccc21 [Bersiporocin]
1: Abdominal discomfort (ADR), number of events [1] | Bowel movement irregularity (ADR), number of events [1] | Cold sweat (ADR), number of events [1] | Feeling hot (ADR), number of events [1] | Malaise (ADR), number of events [1] | Abdominal distension (ADR), number of events [2] | Abdominal pain (ADR), number of events [2] | Alanine aminotransferase increased (ADR), number of events [2] | Altered visual depth perception (ADR), number of events [2] | Constipation (ADR), number of events [2] | Dizziness (ADR), number of events [2] | Dry mouth (ADR), number of events [2] | Euphoric mood (ADR), number of events [2] | Feces discolored (ADR), number of events [2] | Gastroesophageal reflux disease (ADR), number of events [2] | Hypoesthesia (ADR), number of events [2] | Oropharyngeal pain (ADR), number of events [2] | Pollakiuria (ADR), number of events [2] | Esophageal pain (ADR), number of events [3] | Impaired healing (ADR), number of events [3] | Papule (ADR), number of events [3] | Presyncope (ADR), number of events [3] | Skin irritation (ADR), number of events [3] | Acne (ADR), number of events [4] | Balance disorder (ADR), number of events [4] | Eructation (ADR), number of events [4] | Flatulence (ADR), number of events [4] | Tremor (ADR), number of events [4]
6: Nausea (ADR), number of events [2]
25: ADRs, number of events [1]
150: ADRs, number of events (MAD study, bersiporocin group)
3 (50.0): Headache (ADR), subjects n (%) [2] | Vomiting (ADR), subjects n (%) [2] | Abdominal pain (ADR), subjects n (%) [3] | Diarrhea (ADR), subjects n (%) [3] | Nausea (ADR), subjects n (%) [3] | Abdominal distension (ADR), subjects n (%) [4] | Abdominal pain (ADR), subjects n (%) [4] | Headache (ADR), subjects n (%) [4]
2: Gastroesophageal reflux disease (ADR), number of events [1] | Diarrhea (ADR), number of events [2] | Dysgeusia (ADR), number of events [2] | Myalgia (ADR), number of events [2] | Abdominal pain upper (ADR), number of events [3] | Constipation (ADR), number of events [3] | Feces soft (ADR), number of events [3] | Vomiting (ADR), number of events [3] | Dizziness (ADR), number of events [4] | Proctalgia (ADR), number of events [4] | Somnolence (ADR), number of events [4] | Vomiting (ADR), number of events [4]
58: ADRs, number of events [4]
0: Abdominal pain upper (ADR), subjects n (%) [1] | Acne (ADR), subjects n (%) [1] | Alanine aminotransferase increased (ADR), subjects n (%) [1] | Altered visual depth perception (ADR), subjects n (%) [1] | Balance disorder (ADR), subjects n (%) [1] | Constipation (ADR), subjects n (%) [1] | Decreased appetite (ADR), subjects n (%) [1] | Dizziness (ADR), subjects n (%) [1] | Dry mouth (ADR), subjects n (%) [1] | Dysgeusia (ADR), subjects n (%) [1] | Eructation (ADR), subjects n (%) [1] | Esophageal pain (ADR), subjects n (%) [1] | Euphoric mood (ADR), subjects n (%) [1] | Feces discolored (ADR), subjects n (%) [1] | Feces soft (ADR), subjects n (%) [1] | Flatulence (ADR), subjects n (%) [1] | Headache (ADR), subjects n (%) [1] | Hypoesthesia (ADR), subjects n (%) [1] | Impaired healing (ADR), subjects n (%) [1] | Myalgia (ADR), subjects n (%) [1] | Neutropenia (ADR), subjects n (%) [1] | Oropharyngeal pain (ADR), subjects n (%) [1] | Papule (ADR), subjects n (%) [1] | Pollakiuria (ADR), subjects n (%) [1] | Presyncope (ADR), subjects n (%) [1] | Proctalgia (ADR), subjects n (%) [1] | Skin irritation (ADR), subjects n (%) [1] | Somnolence (ADR), subjects n (%) [1] | Transaminases increased (ADR), subjects n (%) [1] | Tremor (ADR), subjects n (%) [1] | Vomiting (ADR), subjects n (%) [1] | Abdominal discomfort (ADR), subjects n (%) [2] | Abdominal pain upper (ADR), subjects n (%) [2] | Acne (ADR), subjects n (%) [2] | Balance disorder (ADR), subjects n (%) [2] | Bowel movement irregularity (ADR), subjects n (%) [2] | Cold sweat (ADR), subjects n (%) [2] | Decreased appetite (ADR), subjects n (%) [2] | Eructation (ADR), subjects n (%) [2] | Esophageal pain (ADR), subjects n (%) [2] | Feces soft (ADR), subjects n (%) [2] | Feeling hot (ADR), subjects n (%) [2] | Flatulence (ADR), subjects n (%) [2] | Impaired healing (ADR), subjects n (%) [2] | Malaise (ADR), subjects n (%) [2] | Neutropenia (ADR), subjects n (%) [2] | Papule (ADR), subjects n (%) [2] | Presyncope (ADR), subjects n (%) [2] | Proctalgia (ADR), subjects n (%) [2] | Salivary hypersecretion (ADR), subjects n (%) [2] | Skin irritation (ADR), subjects n (%) [2] | Somnolence (ADR), subjects n (%) [2] | Transaminases increased (ADR), subjects n (%) [2] | Tremor (ADR), subjects n (%) [2] | Abdominal discomfort (ADR), subjects n (%) [3] | Acne (ADR), subjects n (%) [3] | Alanine aminotransferase increased (ADR), subjects n (%) [3] | Altered visual depth perception (ADR), subjects n (%) [3] | Balance disorder (ADR), subjects n (%) [3] | Bowel movement irregularity (ADR), subjects n (%) [3] | Cold sweat (ADR), subjects n (%) [3] | Decreased appetite (ADR), subjects n (%) [3] | Dizziness (ADR), subjects n (%) [3] | Dry mouth (ADR), subjects n (%) [3] | Dysgeusia (ADR), subjects n (%) [3] | Eructation (ADR), subjects n (%) [3] | Euphoric mood (ADR), subjects n (%) [3] | Feces discolored (ADR), subjects n (%) [3] | Feeling hot (ADR), subjects n (%) [3] | Flatulence (ADR), subjects n (%) [3] | Gastroesophageal reflux disease (ADR), subjects n (%) [3] | Headache (ADR), subjects n (%) [3] | Hypoesthesia (ADR), subjects n (%) [3] | Malaise (ADR), subjects n (%) [3] | Myalgia (ADR), subjects n (%) [3] | Neutropenia (ADR), subjects n (%) [3] | Oropharyngeal pain (ADR), subjects n (%) [3] | Pollakiuria (ADR), subjects n (%) [3] | Proctalgia (ADR), subjects n (%) [3] | Salivary hypersecretion (ADR), subjects n (%) [3] | Somnolence (ADR), subjects n (%) [3] | Transaminases increased (ADR), subjects n (%) [3] | Tremor (ADR), subjects n (%) [3] | Abdominal discomfort (ADR), subjects n (%) [4] | Abdominal pain upper (ADR), subjects n (%) [4] | Alanine aminotransferase increased (ADR), subjects n (%) [4] | Altered visual depth perception (ADR), subjects n (%) [4] | Bowel movement irregularity (ADR), subjects n (%) [4] | Cold sweat (ADR), subjects n (%) [4] | Constipation (ADR), subjects n (%) [4] | Decreased appetite (ADR), subjects n (%) [4] | Dry mouth (ADR), subjects n (%) [4] | Dysgeusia (ADR), subjects n (%) [4] | Esophageal pain (ADR), subjects n (%) [4] | Euphoric mood (ADR), subjects n (%) [4] | Feces discolored (ADR), subjects n (%) [4] | Feces soft (ADR), subjects n (%) [4] | Feeling hot (ADR), subjects n (%) [4] | Gastroesophageal reflux disease (ADR), subjects n (%) [4] | Hypoesthesia (ADR), subjects n (%) [4] | Impaired healing (ADR), subjects n (%) [4] | Malaise (ADR), subjects n (%) [4] | Myalgia (ADR), subjects n (%) [4] | Neutropenia (ADR), subjects n (%) [4] | Oropharyngeal pain (ADR), subjects n (%) [4] | Papule (ADR), subjects n (%) [4] | Pollakiuria (ADR), subjects n (%) [4] | Presyncope (ADR), subjects n (%) [4] | Salivary hypersecretion (ADR), subjects n (%) [4] | Skin irritation (ADR), subjects n (%) [4] | Transaminases increased (ADR), subjects n (%) [4]
1 (16.7): Abdominal discomfort (ADR), subjects n (%) [1] | Bowel movement irregularity (ADR), subjects n (%) [1] | Cold sweat (ADR), subjects n (%) [1] | Feeling hot (ADR), subjects n (%) [1] | Gastroesophageal reflux disease (ADR), subjects n (%) [1] | Malaise (ADR), subjects n (%) [1] | Nausea (ADR), subjects n (%) [1] | Abdominal distension (ADR), subjects n (%) [2] | Abdominal pain (ADR), subjects n (%) [2] | Alanine aminotransferase increased (ADR), subjects n (%) [2] | Altered visual depth perception (ADR), subjects n (%) [2] | Constipation (ADR), subjects n (%) [2] | Dizziness (ADR), subjects n (%) [2] | Dry mouth (ADR), subjects n (%) [2] | Euphoric mood (ADR), subjects n (%) [2] | Feces discolored (ADR), subjects n (%) [2] | Gastroesophageal reflux disease (ADR), subjects n (%) [2] | Hypoesthesia (ADR), subjects n (%) [2] | Oropharyngeal pain (ADR), subjects n (%) [2] | Pollakiuria (ADR), subjects n (%) [2] | Esophageal pain (ADR), subjects n (%) [3] | Impaired healing (ADR), subjects n (%) [3] | Papule (ADR), subjects n (%) [3] | Presyncope (ADR), subjects n (%) [3] | Skin irritation (ADR), subjects n (%) [3] | Vomiting (ADR), subjects n (%) [3] | Acne (ADR), subjects n (%) [4] | Balance disorder (ADR), subjects n (%) [4] | Eructation (ADR), subjects n (%) [4] | Flatulence (ADR), subjects n (%) [4] | Proctalgia (ADR), subjects n (%) [4] | Somnolence (ADR), subjects n (%) [4] | Tremor (ADR), subjects n (%) [4]
12: Nausea (ADR), number of events [4]
21: subjects with ADRs, number (MAD study, bersiporocin group)
3: Abdominal distension (ADR), number of events [1] | Diarrhea (ADR), number of events [1] | Salivary hypersecretion (ADR), number of events [1] | Abdominal distension (ADR), number of events [3]
7: Diarrhea (ADR), number of events [4] | Headache (ADR), number of events [4]
8: Abdominal pain (ADR), number of events [3]
5: Abdominal pain (ADR), number of events [1] | Headache (ADR), number of events [2] | Vomiting (ADR), number of events [2] | Abdominal distension (ADR), number of events [4]
32: ADRs, number of events [3]
6 (100): Subjects with ADRs, n (%) [2] | Subjects with ADRs, n (%) [3]
4: Nausea (ADR), number of events [1] | Diarrhea (ADR), number of events [3] | Nausea (ADR), number of events [3]
5 (83.3): Nausea (ADR), subjects n (%) [4] | Subjects with ADRs, n (%) [4]
4 (66.7): Subjects with ADRs, n (%) [1] | Nausea (ADR), subjects n (%) [2] | Diarrhea (ADR), subjects n (%) [4]
14: Abdominal pain (ADR), number of events [4]
35: ADRs, number of events [2]
88%: subjects with ADRs, percentage (MAD study, bersiporocin group)
2 (33.3): Abdominal distension (ADR), subjects n (%) [1] | Abdominal pain (ADR), subjects n (%) [1] | Diarrhea (ADR), subjects n (%) [1] | Salivary hypersecretion (ADR), subjects n (%) [1] | Diarrhea (ADR), subjects n (%) [2] | Dysgeusia (ADR), subjects n (%) [2] | Myalgia (ADR), subjects n (%) [2] | Abdominal distension (ADR), subjects n (%) [3] | Abdominal pain upper (ADR), subjects n (%) [3] | Constipation (ADR), subjects n (%) [3] | Feces soft (ADR), subjects n (%) [3] | Dizziness (ADR), subjects n (%) [4] | Vomiting (ADR), subjects n (%) [4]
